This is an account of results in US3948967A, “Aryl urea carbonates” (Velsicol Chemical Corporation, priority 1974, dated 1976).

Each structure is given as a SMILES string.

Common to all, as to type: in vivo
Experiment [1] deals with leaf rust on wheat, Puccinia rubigo-vera. Description: control of leaf rust on wheat (soil watering). The note with it: about 25 cc. soil watering, rated 7 to 10 days after inoculation vs untreated. The protocol: The fungicidal utility of the compounds of this invention was illustrated by experiments carried out for the control of leaf rust on wheat, Puccinia rubigo-vera. In these experiments wheat plants were grown in soil until they were about 2-21/2 inches tall. The soil in which the plants were growing was then watered with about 25 cc. of a solution of the chemical in water. The plants were then placed in the greenhouse for about five days and inoculated with leaf rust spores by dusting the spores from diseased plants. After 7 to 10 days the growth of the fungus on the plants was measured and rated in comparison with plants inoculated but otherwise untreated.

The subject of experiment [2] is California barnyardgrass. Description: pre-emergence herbicidal activity, greenhouse pots. The note with it: 8 lb. per acre, 15 to 21 days, scale 0 = no injury to 10 = death. The protocol:
(§1) In these experiments small plastic greenhouse pots filled with dry soil were seeded with California barnyardgrass, crabgrass, dock, downybrome, foxtail, Johnson grass, mustard weed, pigweed and velvetleaf. Twenty-four hours or less after seeding the pots were sprayed with water until the soil was wet and the test compounds formulated as aqueous emulsions of acetone solutions containing emulsifiers were sprayed at the rate of 8 lb. per acre on the surface of the soil.
(§2) After spraying, the soil containers were placed in the greenhouse and provided with supplementary heat as required and daily or more frequent watering. The plants were maintained under these conditions for a period of from 15 to 21 days, at which time the condition of the plants and the degree of injury to the plants was rated on a scale of from 0 to 10, as follows: 0 = no injury, 1,2 = slight injury, 3,4 = moderate injury, 5,6 = moderately severe injury, 7,8,9 = severe injury and 10 = death.

Experiment [3] concerns Crabgrass. Description: pre-emergence herbicidal activity, greenhouse pots. The note with it: 8 lb. per acre, 15 to 21 days, scale 0 = no injury to 10 = death. The protocol: as §1, §2
For experiment [4], the system named is Dock. Description: pre-emergence herbicidal activity, greenhouse pots. As to conditions: 8 lb. per acre, 15 to 21 days, scale 0 = no injury to 10 = death. The protocol: as §1, §2
For experiment [5], the system named is Downybrome. Description: pre-emergence herbicidal activity, greenhouse pots. As to conditions: 8 lb. per acre, 15 to 21 days, scale 0 = no injury to 10 = death. Here is the method:
as §1, §2

The test system of experiment [6] is Foxtail. Description: pre-emergence herbicidal activity, greenhouse pots. The note with it: 8 lb. per acre, 15 to 21 days, scale 0 = no injury to 10 = death. The protocol: as §1, §2
Experiment [7] deals with Johnson grass. Description: pre-emergence herbicidal activity, greenhouse pots. As to conditions: 8 lb. per acre, 15 to 21 days, scale 0 = no injury to 10 = death. Here is the method: as §1, §2
In experiment [8] the test system is Mustard. Description: pre-emergence herbicidal activity, greenhouse pots. As to conditions: 8 lb. per acre, 15 to 21 days, scale 0 = no injury to 10 = death. The protocol:
as §1, §2

Experiment [9] has as its system Pigweed. Description: pre-emergence herbicidal activity, greenhouse pots. The note with it: 8 lb. per acre, 15 to 21 days, scale 0 = no injury to 10 = death. The protocol: as §1, §2
In experiment [10] the test system is Velvetleaf. Description: pre-emergence herbicidal activity, greenhouse pots. As to conditions: 8 lb. per acre, 15 to 21 days, scale 0 = no injury to 10 = death. The protocol:
as §1, §2

Experiment [11] relates to California barnyardgrass. Description: post-emergence herbicidal activity, foliage spray. The note with it: 8 lb. per acre on foliage, 10 to 15 days, scale 0 = no injury to 10 = death.
From the text: as §2
(§3) In these experiments the compounds to be tested were formulated as aqueous emulsions and sprayed at the rate of 8 lb. per acre on the foliage of California barnyardgrass, crabgrass, dock, downybrome, foxtail, Johnson grass, mustard weed, pigweed and velvetleaf that had attained a prescribed size. After spraying the plants were placed in a greenhouse and watered daily or more frequently. Water was not applied to the foliage of the treated plants. The severity of the injury was determined 10 to 15 days after treatment and was rated on the scale of from 0 to 10 heretofore described.

Experiment [12] deals with Crabgrass. Description: post-emergence herbicidal activity, foliage spray. The note with it: 8 lb. per acre on foliage, 10 to 15 days, scale 0 = no injury to 10 = death.
From the text: as §2, §3

For experiment [13], the system named is Dock. Description: post-emergence herbicidal activity, foliage spray. As to conditions: 8 lb. per acre on foliage, 10 to 15 days, scale 0 = no injury to 10 = death.
From the text: as §2, §3

In experiment [14] the test system is Downybrome. Description: post-emergence herbicidal activity, foliage spray. As to conditions: 8 lb. per acre on foliage, 10 to 15 days, scale 0 = no injury to 10 = death.
From the text: as §2, §3

The test system of experiment [15] is Foxtail. Description: post-emergence herbicidal activity, foliage spray. The note with it: 8 lb. per acre on foliage, 10 to 15 days, scale 0 = no injury to 10 = death.
From the text: as §2, §3

In experiment [16] the test system is Johnson grass. Description: post-emergence herbicidal activity, foliage spray. As to conditions: 8 lb. per acre on foliage, 10 to 15 days, scale 0 = no injury to 10 = death.
From the text: as §2, §3

Experiment [17] relates to Mustard. Description: post-emergence herbicidal activity, foliage spray. The note with it: 8 lb. per acre on foliage, 10 to 15 days, scale 0 = no injury to 10 = death.
From the text: as §2, §3

For experiment [18], the system named is Pigweed. Description: post-emergence herbicidal activity, foliage spray. As to conditions: 8 lb. per acre on foliage, 10 to 15 days, scale 0 = no injury to 10 = death.
From the text: as §2, §3

The subject of experiment [19] is Velvetleaf. Description: post-emergence herbicidal activity, foliage spray. The note with it: 8 lb. per acre on foliage, 10 to 15 days, scale 0 = no injury to 10 = death.
From the text: as §2, §3

Regarding `CCOC(=O)ON(C(=O)NC)c1cc(Cl)ccc1Cl` [Example 3, 1-(2,5-Dichlorophenyl)-1-ethoxycarbonyloxy-3-methylurea], the “% Control” value in experiment [1] (1000 ppm actual compound) turned out to be 95%.

Consider `CNC(=O)N(OC(=O)OC)c1ccc(Cl)c(Cl)c1` [Example 1, 1-(3,4-Dichlorophenyl)-1-methoxycarbonyloxy-3-methylurea], for which the “Injury Rating, Pre-Emergence” value in experiment [2] is listed as 9.5; in experiment [3], 10; in experiment [4] it was 9.5; in experiment [5] it was 9; in experiment [6] it was 10; in [7], 9. In addition, the “Injury Rating, Pre-Emergence” value in experiment [8], in experiment [9] and in experiment [10] was 10 in each case. For the same molecule, the “Injury Rating, Post-Emergence” value in [11] is on record as 10; in experiment [12], 10; in experiment [13] it was 8; in experiment [14] it was 10; in experiment [15] it was 10; in [16] it was 8. In addition, the “Injury Rating, Post-Emergence” value in experiment [17], in [18] and in [19] was 10 each time. Also, in experiment [1] (200 ppm actual compound), the “% Control” value came out at 100%.

As for `CCOC(=O)ON(C(=O)NC)c1ccc(Cl)c(Cl)c1` [Example 2, 1-(3,4-Dichlorophenyl)-1-ethoxycarbonyloxy-3-methylurea], the “Injury Rating, Pre-Emergence” value in experiment [2] was 10; in experiment [3], 10; in experiment [4], 9; in experiment [5], 9; in [6], 10; in [7], 8. For the same molecule, the “Injury Rating, Pre-Emergence” value in experiment [8], in [9] and in experiment [10] was 10 throughout. In addition, the “Injury Rating, Post-Emergence” value was 10 in experiment [11]; 10 in experiment [12]; 9 in [13]; 10 in experiment [14]; 10 in [15]; 8 in experiment [16]. Moreover, the “Injury Rating, Post-Emergence” value in experiment [17], in experiment [18] and in [19] was 10 throughout. Also, the “% Control” value in experiment [1] (200 ppm actual compound) is recorded as 100%.
